Measurements reported in patent publication US6872690B2, “Herbicidal 2-alkynyl-pyri (mi) dines” (WYETH, priority 2001, dated 2005).

Key:
Type in all cases: in vivo
Galium aparine [1] = experiment: Post-emergence herbicidal activity test; settings: 2-4 weeks after treatment
Summary of the method: (§1)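 Post-emergence spray of acetone solutions diluted with water, at about 0.025 to 0.4 kg test compound per hectare per pot. Plants kept on greenhouse benches and visually rated 2 to 4 weeks after treatment on a rating scale.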

Echinochloa crus-galli [2] = experiment: Post-emergence herbicidal activity test; settings: 2-4 weeks after treatment
Summary of the method: as §1

Ipomoea hederacea [3] = experiment: Post-emergence herbicidal activity test; settings: 2-4 weeks after treatment
Summary of the method: as §1

Cassia obtusifolia [4] = experiment: Post-emergence herbicidal activity test; settings: 2-4 weeks after treatment
Summary of the method: as §1

Orysa sativa [5] = experiment: Post-emergence herbicidal activity test; settings: 2-4 weeks after treatment
Summary of the method: as §1

Setaria viridis [6] = experiment: Post-emergence herbicidal activity test; settings: 2-4 weeks after treatment
Summary of the method: as §1

Ambrosia artemisifolia [7] = experiment: Post-emergence herbicidal activity test; settings: 2-4 weeks after treatment
Summary of the method: as §1

Abutilon theophrasti [8] = experiment: Post-emergence herbicidal activity test; settings: 2-4 weeks after treatment
Summary of the method: as §1

Glycine max [9] = experiment: Post-emergence herbicidal activity test; settings: 0.100 kg/ha, 2-4 weeks after treatment
Summary of the method: as §1

Matricaria inodora [10] = experiment: Post-emergence herbicidal activity test; settings: 2-4 weeks after treatment
Summary of the method: as §1

Alopecurus myosuroides [11] = experiment: Post-emergence herbicidal activity test; settings: 2-4 weeks after treatment
Summary of the method: as §1

Triticum aestivum [12] = experiment: Post-emergence herbicidal activity test; settings: 2-4 weeks after treatment
Summary of the method: as §1

Digitaria sanguinalis [13] = experiment: Post-emergence herbicidal activity test; settings: 2-4 weeks after treatment
Summary of the method: as §1

Zea mays [14] = experiment: Post-emergence herbicidal activity test; settings: 2-4 weeks after treatment
Summary of the method: as §1

Stellaria media = experiment: Post-emergence herbicidal activity test; settings: 2-4 weeks after treatment
Summary of the method: as §1

Galium aparine [15] = experiment: Pre-emergence test; settings: 3 weeks after treatment
Summary of the method: (§2)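 Pre-emergence spray onto horticultural loam freshly sown with seeds, using acetone solutions containing 0.4% TRITON X-155 diluted in water. Applied at 0.013, 0.025, 0.100 or 0.400 kg active material per hectare in 900 litres per hectare. Pots rated 2 to 4 weeks after treatment against untreated sown controls.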

Echinochloa crus-galli [16] = experiment: Pre-emergence test; settings: 3 weeks after treatment
Summary of the method: as §2

Ipomoea hederacea [17] = experiment: Pre-emergence test; settings: 3 weeks after treatment
Summary of the method: as §2

Lamium purpureum = experiment: Pre-emergence test; settings: 3 weeks after treatment
Summary of the method: as §2

Cassia obtusifolia [18] = experiment: Pre-emergence test; settings: 3 weeks after treatment
Summary of the method: as §2

Orysa sativa [19] = experiment: Pre-emergence test; settings: 3 weeks after treatment
Summary of the method: as §2

Setaria viridis [20] = experiment: Pre-emergence test; settings: 3 weeks after treatment
Summary of the method: as §2

Ambrosia artemisifolia [21] = experiment: Pre-emergence test; settings: 3 weeks after treatment
Summary of the method: as §2

Abutilon theophrasti [22] = experiment: Pre-emergence test; settings: 3 weeks after treatment
Summary of the method: as §2

Glycine max [23] = experiment: Pre-emergence test; settings: 3 weeks after treatment
Summary of the method: as §2

Matricaria inodora [24] = experiment: Pre-emergence test; settings: 3 weeks after treatment
Summary of the method: as §2

Alopecurus myosuroides [25] = experiment: Pre-emergence test; settings: 3 weeks after treatment
Summary of the method: as §2

Triticum aestivum [26] = experiment: Pre-emergence test; settings: 3 weeks after treatment
Summary of the method: as §2

Digitaria sanguinalis [27] = experiment: Pre-emergence test; settings: 3 weeks after treatment
Summary of the method: as §2

Zea mays [28] = experiment: Pre-emergence test; settings: 3 weeks after treatment
Summary of the method: as §2

In the case of `Cc1cc(Oc2cc(C(F)(F)F)nn2C)nc(C#Cc2ccccc2)n1` [Example 161], the “Post-emergence application GALAP” value (Galium aparine [1]; 0.100 kg/ha) is reported as 7 (7-Good herbicidal effect), the “Post-emergence application GALAP” value (Galium aparine [1]; 0.400 kg/ha) is reported as 8 (8-Approaching complete kill) and the “Post-emergence application ECHCG” value (Echinochloa crus-galli [2]; 0.100 kg/ha) is reported as 1 (1-Trace effect). The “Post-emergence application ECHCG” value (Echinochloa crus-galli [2]; 0.400 kg/ha) was 2 (2-Slight effect), the “Post-emergence application IPOHE” value (Ipomoea hederacea [3]; 0.100 kg/ha) was 9 (9-Complete kill) and the “Post-emergence application IPOHE” value (Ipomoea hederacea [3]; 0.400 kg/ha) was 9 (9-Complete kill). For the same molecule, the “Post-emergence application CASOB” value (Cassia obtusifolia [4]; 0.100 kg/ha) was 1 (1-Trace effect), the “Post-emergence application CASOB” value (Cassia obtusifolia [4]; 0.400 kg/ha) was 3 (3-Moderate effect) and the “Post-emergence application ORYSA” value (Orysa sativa [5]; 0.100 kg/ha) was 2 (2-Slight effect). The “Post-emergence application ORYSA” value (Orysa sativa [5]; 0.400 kg/ha) was 3 (3-Moderate effect), the “Post-emergence application SETVI” value (Setaria viridis [6]; 0.100 kg/ha) was 4 (4-Injury) and the “Post-emergence application SETVI” value (Setaria viridis [6]; 0.400 kg/ha) was 6 (6-Herbicidal effect). The “Post-emergence application AMBEL” value (Ambrosia artemisifolia [7]; 0.100 kg/ha) was 5 (5-Definite injury), the “Post-emergence application AMBEL” value (Ambrosia artemisifolia [7]; 0.400 kg/ha) was 5 (5-Definite injury) and the “Post-emergence application ABUTH” value (Abutilon theophrasti [8]; 0.100 kg/ha) was 4 (4-Injury). The “Post-emergence application ABUTH” value (Abutilon theophrasti [8]; 0.400 kg/ha) was 5 (5-Definite injury), the “Post-emergence application GLXMA” value (Glycine max [9]) was 3 (3-Moderate effect) and the “Post-emergence application MATIN” value (Matricaria inodora [10]; 0.100 kg/ha) was 3 (3-Moderate effect). The “Post-emergence application MATIN” value (Matricaria inodora [10]; 0.400 kg/ha) was 4 (4-Injury), the “Post-emergence application ALOMY” value (Alopecurus myosuroides [11]; 0.100 kg/ha) was 2 (2-Slight effect) and the “Post-emergence application ALOMY” value (Alopecurus myosuroides [11]; 0.400 kg/ha) was 3 (3-Moderate effect). The “Post-emergence application TRZWA” value (Triticum aestivum [12]; 0.100 kg/ha) was 2 (2-Slight effect), the “Post-emergence application TRZWA” value (Triticum aestivum [12]; 0.400 kg/ha) was 2 (2-Slight effect) and the “Post-emergence application DIGSA” value (Digitaria sanguinalis [13]; 0.100 kg/ha) was 2 (2-Slight effect). The “Post-emergence application DIGSA” value (Digitaria sanguinalis [13]; 0.400 kg/ha) was 2 (2-Slight effect), the “Post-emergence application ZEAMX” value (Zea mays [14]; 0.100 kg/ha) was 2 (2-Slight effect) and the “Post-emergence application ZEAMX” value (Zea mays [14]; 0.400 kg/ha) was 2 (2-Slight effect). For the same molecule, the “Post-emergence application STEME” value (Stellaria media; 0.100 kg/ha) was 2 (2-Slight effect), the “Post-emergence application STEME” value (Stellaria media; 0.400 kg/ha) was 4 (4-Injury) and the “Assessment (pre-emergence application) GALAP” value (Galium aparine [15]; 0.025 kg/ha) was 1 (1-Trace effect). The “Assessment (pre-emergence application) GALAP” value (Galium aparine [15]; 0.100 kg/ha) was 1 (1-Trace effect), the “Assessment (pre-emergence application) GALAP” value (Galium aparine [15]; 0.400 kg/ha) was 3 (3-Moderate effect) and the “Assessment (pre-emergence application) ECHCG” value (Echinochloa crus-galli [16]; 0.025 kg/ha) was 0 (0-No effect). For the same molecule, the “Assessment (pre-emergence application) ECHCG” value (Echinochloa crus-galli [16]; 0.100 kg/ha) was 1 (1-Trace effect), the “Assessment (pre-emergence application) ECHCG” value (Echinochloa crus-galli [16]; 0.400 kg/ha) was 3 (3-Moderate effect) and the “Assessment (pre-emergence application) IPOHE” value (Ipomoea hederacea [17]; 0.025 kg/ha) was 0 (0-No effect). For the same molecule, the “Assessment (pre-emergence application) IPOHE” value (Ipomoea hederacea [17]; 0.100 kg/ha) was 3 (3-Moderate effect), the “Assessment (pre-emergence application) IPOHE” value (Ipomoea hederacea [17]; 0.400 kg/ha) was 3 (3-Moderate effect) and the “Assessment (pre-emergence application) LAMPU” value (Lamium purpureum; 0.025 kg/ha) was 0 (0-No effect). The “Assessment (pre-emergence application) LAMPU” value (Lamium purpureum; 0.100 kg/ha) was 5 (5-Definite injury), the “Assessment (pre-emergence application) LAMPU” value (Lamium purpureum; 0.400 kg/ha) was 7 (7-Good herbicidal effect) and the “Assessment (pre-emergence application) CASOB” value (Cassia obtusifolia [18]; 0.025 kg/ha) was 0 (0-No effect). The “Assessment (pre-emergence application) CASOB” value (Cassia obtusifolia [18]; 0.100 kg/ha) was 0 (0-No effect), the “Assessment (pre-emergence application) CASOB” value (Cassia obtusifolia [18]; 0.400 kg/ha) was 0 (0-No effect) and the “Assessment (pre-emergence application) ORYSA” value (Orysa sativa [19]; 0.025 kg/ha) was 0 (0-No effect). For the same molecule, the “Assessment (pre-emergence application) ORYSA” value (Orysa sativa [19]; 0.100 kg/ha) was 1 (1-Trace effect), the “Assessment (pre-emergence application) ORYSA” value (Orysa sativa [19]; 0.400 kg/ha) was 1 (1-Trace effect) and the “Assessment (pre-emergence application) SETVI” value (Setaria viridis [20]; 0.025 kg/ha) was 2 (2-Slight effect). The “Assessment (pre-emergence application) SETVI” value (Setaria viridis [20]; 0.100 kg/ha) was 4 (4-Injury), the “Assessment (pre-emergence application) SETVI” value (Setaria viridis [20]; 0.400 kg/ha) was 7 (7-Good herbicidal effect) and the “Assessment (pre-emergence application) MBEL” value (Ambrosia artemisifolia [21]; 0.025 kg/ha) was 2 (2-Slight effect). The “Assessment (pre-emergence application) MBEL” value (Ambrosia artemisifolia [21]; 0.100 kg/ha) was 2 (2-Slight effect), the “Assessment (pre-emergence application) ABUTH” value (Abutilon theophrasti [22]; 0.025 kg/ha) was 2 (2-Slight effect) and the “Assessment (pre-emergence application) ABUTH” value (Abutilon theophrasti [22]; 0.100 kg/ha) was 4 (4-Injury). The “Assessment (pre-emergence application) ABUTH” value (Abutilon theophrasti [22]; 0.400 kg/ha) was 4 (4-Injury), the “Assessment (pre-emergence application) GLXMA” value (Glycine max [23]; 0.025 kg/ha) was 0 (0-No effect) and the “Assessment (pre-emergence application) GLXMA” value (Glycine max [23]; 0.100 kg/ha) was 0 (0-No effect). For the same molecule, the “Assessment (pre-emergence application) GLXMA” value (Glycine max [23]; 0.400 kg/ha) was 1 (1-Trace effect), the “Assessment (pre-emergence application) MATIN” value (Matricaria inodora [24]; 0.025 kg/ha) was 3 (3-Moderate effect) and the “Assessment (pre-emergence application) MATIN” value (Matricaria inodora [24]; 0.100 kg/ha) was 4 (4-Injury). For the same molecule, the “Assessment (pre-emergence application) MATIN” value (Matricaria inodora [24]; 0.400 kg/ha) was 8 (8-Approaching complete kill), the “Assessment (pre-emergence application) ALOMY” value (Alopecurus myosuroides [25]; 0.025 kg/ha) was 9 (9-Complete kill) and the “Assessment (pre-emergence application) ALOMY” value (Alopecurus myosuroides [25]; 0.100 kg/ha) was 1 (1-Trace effect). The “Assessment (pre-emergence application) ALOMY” value (Alopecurus myosuroides [25]; 0.400 kg/ha) was 3 (3-Moderate effect), the “Assessment (pre-emergence application) TRZWA” value (Triticum aestivum [26]; 0.025 kg/ha) was 0 (0-No effect) and the “Assessment (pre-emergence application) TRZWA” value (Triticum aestivum [26]; 0.100 kg/ha) was 0 (0-No effect). For the same molecule, the “Assessment (pre-emergence application) TRZWA” value (Triticum aestivum [26]; 0.400 kg/ha) was 0 (0-No effect), the “Assessment (pre-emergence application) DIGSA” value (Digitaria sanguinalis [27]; 0.025 kg/ha) was 1 (1-Trace effect) and the “Assessment (pre-emergence application) DIGSA” value (Digitaria sanguinalis [27]; 0.100 kg/ha) was 3 (3-Moderate effect). The “Assessment (pre-emergence application) DIGSA” value (Digitaria sanguinalis [27]; 0.400 kg/ha) was 9 (9-Complete kill), the “Assessment (pre-emergence application) ZEAMX” value (Zea mays [28]; 0.025 kg/ha) was 0 (0-No effect) and the “Assessment (pre-emergence application) ZEAMX” value (Zea mays [28]; 0.100 kg/ha) was 0 (0-No effect). The “Assessment (pre-emergence application) ZEAMX” value (Zea mays [28]; 0.400 kg/ha) was 0 (0-No effect).
